We go through one compound from US9925222B2, “Gut barrier dysfunction treatment and prevention” (ALBERT EINSTEIN COLLEGE OF MEDICINE OF YESHIVA UNIVERSITY, priority 2012, dated 2018).

For data set [1] the following is noted: Pubchem, ST093573; cited from earlier work.
Data set [2] concerns Tnf-α, Zo-1 and E-cad mRNA expression in gut epithelium. Briefly: Ex vivo treatment of gut mucosa with OLA, rescue with indole and IPA, qPCR. The data set is classed as cell-based. The conditions noted are these: OLA 5 mg/ml, 3 h ex vivo; all mice genotypes. As to the method: Freshly isolated gut mucosa were incubated in the presence of OLA (5 mg/ml) for 3 h at 37° C., 5% CO2 (13). After 3 h of OLA treatment, enterocytes were isolated and pooled for RNA isolation. […] Experiments were performed at least two independent times. OLA has […] (log P), thus is unsuitable for in vivo studies of luminal bacterial enzyme inhibition (Pubchem, ST093573). 2.0 μg of total RNA extracted from pooled apical enterocytes with TRIzolR (Invitrogen), were reverse transcribed with random hexamer primers and SuperScriptTM III-RT enzyme (Invitrogen). Quantitative PCR (qPCR) reactions using TaqMan universal PCR master mix and TaqMan probes containing FAM as the 5' reporter fluorochrome and tetramethylrhodamine (MGB) as the 3' quencher fluorochrome, were performed in triplicate for each sample and analyzed on the ABI Prism 7900HT system. Primers and minor groove binder/non-fluorescent quencher probes used for PCR amplification were obtained from Applied Biosystems as well as the following assays on demand: […] Controls include RT-minus RNA samples. PCR reaction conditions for all assays were set at 50° C. for 2 minutes, 95° C. for 10 minutes, followed by 40 cycles of amplification (95° C. for 15 seconds then 60° C. for 1 minute).
(Quantitative PCR measures a nucleic acid by following its amplification.)

`NC(CC1C(=O)Nc2ccccc21)C(=O)O` [OLA, Oxindolyl L-alanine]: the “Predicted oral bioavailability (log P)” value in data set [1] was “high”. Besides, in data set [2], the “Enterocyte Tnf-α mRNA expression after OLA” value is on record as “enhanced enterocyte Tnf-α mRNA expression”; the “Expression of junctional regulators (Zo-1 and E-cad) after OLA” value is reported as “diminished expression of junctional regulators”.
